Assay results: article PMC10687260, “1,3-Diphenylureido hydroxamate as a promising scaffold for generation of potent antimalarial histone deacetylase inhibitors” (Scientific Reports, 2023)

Experiments:
CYP1A2 = biological target: T1, CYP1A2 (Homo sapiens, UniProt P05177); assay: CYP450 inhibition in human liver microsomes, 1A2; assay type: in vitro ADME; conditions: Tested concentration: 1.0 µM
T1 construct: 10 μM compound was incubated with human liver microsomes and selective marker substrates; from tissue; host or cells: human liver microsomes
T1 sequence (P05177 1-516): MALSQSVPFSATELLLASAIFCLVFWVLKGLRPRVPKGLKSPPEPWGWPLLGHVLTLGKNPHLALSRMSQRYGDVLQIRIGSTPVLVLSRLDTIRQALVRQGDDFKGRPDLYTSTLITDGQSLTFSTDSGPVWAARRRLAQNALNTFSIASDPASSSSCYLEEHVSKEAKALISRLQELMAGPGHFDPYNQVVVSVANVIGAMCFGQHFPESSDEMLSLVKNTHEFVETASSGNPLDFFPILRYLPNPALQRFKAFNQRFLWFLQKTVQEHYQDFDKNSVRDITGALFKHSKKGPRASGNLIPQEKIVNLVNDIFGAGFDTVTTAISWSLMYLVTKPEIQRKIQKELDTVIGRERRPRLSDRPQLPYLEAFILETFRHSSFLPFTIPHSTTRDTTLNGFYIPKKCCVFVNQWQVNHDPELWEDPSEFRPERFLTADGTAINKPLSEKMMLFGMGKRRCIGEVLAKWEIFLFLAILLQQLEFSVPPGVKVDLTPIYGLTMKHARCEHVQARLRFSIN

CYP450 2C9 = biological target: T2, CYP450 2C9 (Homo sapiens, UniProt P11712); assay: CYP450 inhibition in human liver microsomes, 2C9; assay type: in vitro ADME
T2 construct: 10 μM compound was incubated with human liver microsomes and selective marker substrates; from tissue; host or cells: human liver microsomes

P. falciparum 3D7 = assay: Antiplasmodial SYBR Green I proliferation assay, P. falciparum 3D7; assay type: cell-based, Plasmodium falciparum; conditions: Plasmodium falciparum, 3D7, 96 h, 96 h; values in brackets 95% confidence intervals; read-out: IC50 Pf3D7
Source text: Antiplasmodial activity against P. falciparum 3D7 (A, C and E) and P. falciparum Dd2 (B, D, F). […] Curves were plotted using non-linear regression based on means from three independent experiments measured in triplicate. Error bars indicate standard deviation, whose values are provided in the respective table.
Plasmodium falciparum culture and antiplasmodial activity. […] Development, parasitaemia, and morphology of parasites were monitored by light microscopy of thin blood smears stained according to the Romanowsky method (Panótico Rápido staining kit; Laborclin, Pinhais, Paraná, Brazil). […] Fresh 0^+ blood was generously provided by “Hospital Novo Atibaia” (Atibaia, SP, Brazil), and approved by the ethics committee at ICB-USP. The antiplasmodial effect of all compounds was validated against P. falciparum 3D7 strain conducting SYBR Green I (Invitrogen) drug assays as previously reported[30],[46] as a modification of the original procedure. […] Parasite proliferation was measured by the DNA load via fluorescence, using 100 μL of a lysis buffer with SYBR Green I (0.02% v/v) and incubated for 1 h at room temperature in the dark. […] Focal and gain adjustment was performed using the non-treated controls (highest expected fluorescence signal). Data was acquired via the CLARIOstar (V5.20) and MARS software, manually scaled to 0–100%, and plotted using GraphPad Prism (v9.5.2 for Windows, GraphPad Software, La Jolla California USA, www.graphpad.com). Non-treated parasites, the highest solvent concentration on parasites, CQ on parasites, and the highest drug concentration in the medium were used as controls for maximal growth, solvent control, positive biological control, and native drug fluorescence, respectively.

HepG2 cells = assay: Cytotoxicity in human HepG2 cells (WST-1); assay type: cell-based; conditions: Homo sapiens, HepG2; 48 h, WST-1; read-out: IC50 HepG2
Procedure: Cytotoxicity in human HepG2 cells.[47] […] Cytotoxic effects of compounds were assessed using the cell proliferation reagent WST-1 (Roche; CELLPRO-RO) in a 96-well plate-based screening assay. HepG2 cells were seeded at 10^4 cells/well (100 μL) in 96-well flat-bottom plates (Sarstedt) the night before the experiment to allow attachment of cells. The next day, two-fold serial dilutions of compounds were prepared in fresh medium in an extra plate, and the medium of cells was replaced by the medium containing the compound dilutions. Non-treated cells (max. proliferation), cells treated with the maximal solvent concentration (DMSO; solvent control), and medium with the maximal compound concentration (native absorbance) used as controls. […] Subsequently, 10 μL WST-1 was added to each well and plates were incubated for additional 4 h under standard conditions. WST-1 is a tetrazolium salt and is metabolised by the mitochondrial succinate-tetrazolium-reductase system of living cells and forms formazan, whose absorbance was measured at 450 nm. Absorbance at 630 nm was assessed to check for protein and precipitation background. Both measurements were acquired via the CLARIOstar (V5.20) and MARS software, manually scaled to 0–100%, and plotted with GraphPad Prism (version 9.5.2 for Windows, GraphPad Software, La Jolla California USA).

human HDAC6 = biological target: T3, human HDAC6 (Homo sapiens, UniProt Q9UBN7); assay: In vitro HDAC enzymatic assay, HDAC6; assay type: biochemical; conditions: for IC50: mean ± SD; for HDAC1/6 SI: ratio HsHDAC1 IC50/HsHDAC6 IC50
T3 construct: purchased ENZO Life Sciences AG (Lausen, CH)
T3 sequence (Q9UBN7 1-1215): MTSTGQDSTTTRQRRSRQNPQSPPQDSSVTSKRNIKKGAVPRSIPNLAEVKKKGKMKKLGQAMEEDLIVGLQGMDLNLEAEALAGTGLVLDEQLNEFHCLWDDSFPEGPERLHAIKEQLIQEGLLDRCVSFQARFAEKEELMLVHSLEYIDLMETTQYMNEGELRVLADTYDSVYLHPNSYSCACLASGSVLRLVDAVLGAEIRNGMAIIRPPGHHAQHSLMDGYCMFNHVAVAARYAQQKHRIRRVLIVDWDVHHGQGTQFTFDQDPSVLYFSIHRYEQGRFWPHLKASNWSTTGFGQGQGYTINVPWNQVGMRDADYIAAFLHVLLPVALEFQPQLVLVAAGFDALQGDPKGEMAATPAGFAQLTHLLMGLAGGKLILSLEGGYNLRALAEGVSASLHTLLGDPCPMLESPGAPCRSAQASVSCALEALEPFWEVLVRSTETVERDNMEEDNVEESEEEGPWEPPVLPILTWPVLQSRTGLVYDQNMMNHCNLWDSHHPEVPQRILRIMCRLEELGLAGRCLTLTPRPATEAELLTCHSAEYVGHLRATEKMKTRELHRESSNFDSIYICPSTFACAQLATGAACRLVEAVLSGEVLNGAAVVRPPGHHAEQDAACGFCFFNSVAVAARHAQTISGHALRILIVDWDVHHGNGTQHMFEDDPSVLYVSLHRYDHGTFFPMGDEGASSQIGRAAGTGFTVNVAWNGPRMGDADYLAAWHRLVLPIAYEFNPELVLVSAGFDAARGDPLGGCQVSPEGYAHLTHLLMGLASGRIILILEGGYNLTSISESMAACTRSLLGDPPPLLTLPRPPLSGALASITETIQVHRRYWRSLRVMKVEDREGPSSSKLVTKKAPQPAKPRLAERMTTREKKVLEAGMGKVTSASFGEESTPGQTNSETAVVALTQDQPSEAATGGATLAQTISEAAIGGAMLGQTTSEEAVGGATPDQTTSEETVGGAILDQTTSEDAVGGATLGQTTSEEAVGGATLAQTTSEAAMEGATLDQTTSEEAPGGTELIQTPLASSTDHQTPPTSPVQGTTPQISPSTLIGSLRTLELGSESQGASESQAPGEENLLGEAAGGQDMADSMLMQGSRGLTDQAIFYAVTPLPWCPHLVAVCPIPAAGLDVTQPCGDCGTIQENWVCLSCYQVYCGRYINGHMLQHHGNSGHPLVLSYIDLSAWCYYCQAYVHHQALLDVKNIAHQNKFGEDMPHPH
Procedure: (§1) In vitro HDAC enzymatic assays. Recombinant human HDAC1 and HDAC6 were purchased from ENZO Life Sciences AG (Lausen, CH) whereas HDAC8 was produced as described before. In vitro testing of the inhibitors in an enzymatic assay was carried out as described in previous publications[32],[33]. For HDAC1 a fluorogenic peptide derived from p53 (Ac-RHKK(Acetyl)-AMC) was used. For HDAC6, the substrate (Abz-SRGGK(thio-TFA)FFRR-NH2) was used as described before.

human HDAC1 = biological target: T4, human HDAC1 (Homo sapiens, UniProt Q13547); assay: In vitro HDAC enzymatic assay, HDAC1; assay type: biochemical; conditions: mean ± SD
T4 construct: purchased ENZO Life Sciences AG (Lausen, CH)
Procedure: as §1

HDAC8 = biological target: T5, HDAC8 (Homo sapiens, UniProt Q9BY41); assay: In vitro HDAC enzymatic assay, HDAC8; assay type: biochemical; conditions: mean ± SD
T5 construct: made in house
T5 sequence (Q9BY41 1-377): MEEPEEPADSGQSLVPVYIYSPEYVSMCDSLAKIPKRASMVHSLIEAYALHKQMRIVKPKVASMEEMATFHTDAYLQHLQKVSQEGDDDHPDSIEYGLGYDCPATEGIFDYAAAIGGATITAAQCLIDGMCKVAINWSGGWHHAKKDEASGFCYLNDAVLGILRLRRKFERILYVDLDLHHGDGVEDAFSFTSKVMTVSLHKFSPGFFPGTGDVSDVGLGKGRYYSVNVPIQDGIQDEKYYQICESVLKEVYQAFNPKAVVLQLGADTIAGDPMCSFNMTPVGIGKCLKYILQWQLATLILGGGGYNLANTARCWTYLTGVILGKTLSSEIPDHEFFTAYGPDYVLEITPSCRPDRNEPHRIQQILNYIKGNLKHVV
Procedure: as §1

CYP450 2D6 = biological target: T6, CYP450 2D6 (Homo sapiens, UniProt P10635); assay: CYP450 inhibition in human liver microsomes, 2D6; assay type: in vitro ADME; conditions: Tested concentration: 40 µM
T6 construct: 10 μM compound was incubated with human liver microsomes and selective marker substrates; from tissue; host or cells: human liver microsomes

[1] = Stability in human hepatic microsomes; assay type: in vitro ADME
Source text: (§2) DMPK evaluation. […].

[2] = Stability in mouse hepatic microsomes; assay type: in vitro ADME
Source text: as §2

T4 sequence (Q13547 whole entry): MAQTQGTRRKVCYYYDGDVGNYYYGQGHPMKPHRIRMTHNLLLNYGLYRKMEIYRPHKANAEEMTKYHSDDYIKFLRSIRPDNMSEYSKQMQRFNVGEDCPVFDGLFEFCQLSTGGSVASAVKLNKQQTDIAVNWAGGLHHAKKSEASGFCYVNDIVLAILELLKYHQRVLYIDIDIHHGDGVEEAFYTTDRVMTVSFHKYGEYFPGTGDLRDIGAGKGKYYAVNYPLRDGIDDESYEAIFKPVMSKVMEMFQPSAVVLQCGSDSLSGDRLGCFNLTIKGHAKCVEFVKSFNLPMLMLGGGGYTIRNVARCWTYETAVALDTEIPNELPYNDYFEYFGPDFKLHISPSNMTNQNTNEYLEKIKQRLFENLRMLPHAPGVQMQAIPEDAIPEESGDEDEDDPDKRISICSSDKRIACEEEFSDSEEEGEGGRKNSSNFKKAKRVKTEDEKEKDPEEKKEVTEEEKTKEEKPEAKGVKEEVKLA
T2 sequence (P11712 whole entry): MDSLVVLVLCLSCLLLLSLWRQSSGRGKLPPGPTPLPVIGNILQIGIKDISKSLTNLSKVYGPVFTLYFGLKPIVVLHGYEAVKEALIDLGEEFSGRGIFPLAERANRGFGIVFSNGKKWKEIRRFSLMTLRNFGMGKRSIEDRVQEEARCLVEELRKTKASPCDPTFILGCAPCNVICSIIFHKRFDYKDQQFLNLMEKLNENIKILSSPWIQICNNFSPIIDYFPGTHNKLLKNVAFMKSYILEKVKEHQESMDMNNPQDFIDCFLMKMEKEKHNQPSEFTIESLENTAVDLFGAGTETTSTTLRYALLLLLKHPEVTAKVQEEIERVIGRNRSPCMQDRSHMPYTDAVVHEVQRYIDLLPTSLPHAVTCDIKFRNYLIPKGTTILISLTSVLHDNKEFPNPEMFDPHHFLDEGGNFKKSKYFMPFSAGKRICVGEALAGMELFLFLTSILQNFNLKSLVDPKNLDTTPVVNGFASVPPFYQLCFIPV
T6 sequence (P10635 whole entry): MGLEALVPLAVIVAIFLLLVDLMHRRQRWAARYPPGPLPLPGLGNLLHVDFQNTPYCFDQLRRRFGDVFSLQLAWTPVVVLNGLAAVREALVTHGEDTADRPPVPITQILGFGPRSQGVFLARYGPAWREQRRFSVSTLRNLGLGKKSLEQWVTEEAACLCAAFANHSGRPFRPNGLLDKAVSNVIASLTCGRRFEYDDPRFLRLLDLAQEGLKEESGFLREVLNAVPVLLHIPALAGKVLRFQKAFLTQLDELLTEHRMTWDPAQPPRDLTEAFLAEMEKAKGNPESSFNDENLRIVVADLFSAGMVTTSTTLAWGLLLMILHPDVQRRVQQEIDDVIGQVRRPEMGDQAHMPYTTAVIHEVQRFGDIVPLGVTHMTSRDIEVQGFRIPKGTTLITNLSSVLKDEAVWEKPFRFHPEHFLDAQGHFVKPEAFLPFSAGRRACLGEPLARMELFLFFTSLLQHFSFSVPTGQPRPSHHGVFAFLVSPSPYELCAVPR

Row | SMILES | IC50 (P. falciparum 3D7) [nM] | IC50 (HepG2 cells) [nM] | IC50 (human HDAC6) [nM] | also measured
1 | CC(=O)N1CCN(c2ccc(OCC3COC(Cn4ccnc4)(c4ccc(Cl)cc4Cl)O3)cc2)CC1 (stereo not drawn) [Ketoconazole, reference compound] | – | – | – | CYP450% inhibition 1A2 (CYP1A2): * (Inhibition < 10%); CYP450% inhibition 2C9 (CYP450 2C9; Tested concentration: 1.0 µM): * (Inhibition < 10%)
2 | O=C(/C=C/c1ccc(NC(=O)Nc2ccc(Cl)cc2)cc1)NO [Compound 6b, (E)-3-(4-(3-(4-chlorophenyl)ureido)phenyl)-N-hydroxyacrylamide] | 7880 | 28800 | 14.3 ± 2.2 | –
3 | O=C(/C=C/c1ccc(NC(=O)Nc2ccc([N+](=O)[O-])cc2)cc1)NO [Compound 6d, (E)-N-hydroxy-3-(4-(3-(4-nitrophenyl)ureido)phenyl)acrylamide] | 1260 | 10400 | 9 ± 0.7 | IC50 (human HDAC1): 1110 ± 56.3 nM; HDAC1/6 SI (human HDAC6): 124; IC50 (HDAC8): 99.1 ± 10.9 nM; melting point: 167 to 168 °C
4 | Cc1ccc(NC(=O)Nc2ccc(C(=O)NO)cc2)cc1 [Compound 8e, N-hydroxy-4-(3-(p-tolyl)ureido)benzamide] | 340 | > 200000 | – | –
5 | O=C(Nc1ccc(OC(F)(F)F)cc1)Nc1ccc(C(=O)NO)cc1 [8 g, N-hydroxy-4-(3-(4-(trifluoromethoxy)phenyl)ureido)benzamide] | 13900 | 60500 | – | –
6 | O=C(Nc1ccc(F)cc1)Nc1ccc(C(=O)NO)cc1 [Compound 8f., 4-(3-(4-fluorophenyl)ureido)-N-hydroxybenzamide] | 400 | 116000 | – | –
7 | Nc1ccc(C(=O)NO)cc1 [Compound 15, 4-amino-N-hydroxybenzamide] | 6300 | > 200000 | – | –
8 | N/C(=N\O)c1ccc(NC(=O)Nc2ccc(C(=O)NO)cc2)cc1 [8 h, (Z)-N-hydroxy-4-(3-(4-(N'-hydroxycarbamimidoyl)phenyl)ureido)benzamide] | 390 | > 200000 | 21.3 ± 0.5 | IC50 (human HDAC1): 8300 ± 481 nM; HDAC1/6 SI (human HDAC6): 390; IC50 (HDAC8): 164 ± 9.1 nM; melting point: 97 to 99 °C
9 | O=C(CCc1ccc(NC(=O)Nc2ccc(Cl)cc2)cc1)NO [Compound 7b, 3-(4-(3-(4-chlorophenyl)ureido)phenyl)-N-hydroxypropanamide] | 7040 | > 50000 | 185 ± 21.6 | IC50 (human HDAC1): 4780 ± 446 nM; HDAC1/6 SI (human HDAC6): 26; IC50 (HDAC8): 568 ± 40.5 nM; melting point: 286 °C (dec.)
10 | N#Cc1ccc(NC(=O)Nc2ccc(C(=O)NO)cc2)cc1 [8 k, 4-(3-(4-cyanophenyl)ureido)-N-hydroxybenzamide] | 260 | > 200000 | 11.6 ± 0.2 | IC50 (human HDAC1): 3750 ± 563 nM; HDAC1/6 SI (human HDAC6): 323; IC50 (HDAC8): 51.5 ± 6.1 nM; melting point: 220 to 222 °C
11 | Nc1ccc(NC(=O)Nc2ccc(C(=O)NO)cc2)cc1 [Compound 8j, 4-(3-(4-aminophenyl)ureido)-N-hydroxybenzamide] | 350 | > 200000 | – | –
12 | Cc1nc2c([nH]1)c(=O)n(C)c(=O)n2Cc1ccco1 [Furafylline, reference compound] | – | – | – | CYP450% inhibition 2C9 (CYP450 2C9; Tested concentration: 40 µM): * (Inhibition < 10%); CYP450% inhibition 2D6 (CYP450 2D6): * (Inhibition < 10%)
13 | CCN(CC)CCNC(=O)c1c(C)[nH]c(/C=C2\C(=O)Nc3ccc(F)cc32)c1C [Sunitinib, reference compound] | – | – | – | half-life at 1 µM ([1]; 1 mg/mL hepatic microsomes, 1 µM compound, read-out: Half-life t1/2 Human): 22.3 min; microsomal CLint at 1 µM ([1]; read-out: Intrinsic clearance Clint Human): 31 µL/min/mg; half-life at 1 µM ([2]; 1 mg/mL hepatic microsomes, 1 µM compound, read-out: Half-life t1/2 Mouse): 9.1 min; microsomal CLint at 1 µM ([2]; read-out: Intrinsic clearance Clint Mouse): 76 µL/min/mg
14 | O=C(Nc1ccc(C(=O)NO)cc1)Nc1ccc(C(F)(F)F)cc1 [Compound 8i, N-hydroxy-4-(3-(4-(trifluoromethyl)phenyl)ureido)benzamide] | 1300 | 25100 | – | –
